# Reference: PubChem BioAssay (NCI)
#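 How tested: cells in 96-well plates exposed to compound for 48 hours at five concentrations. TGI: total growth inhibition.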 *1 amine or outer side, *2 acyl side, *3 side chain or, on linkers, in order; H or OH if unused. Where a SMILES comes first, the peptide text is derived from it. Bridges are numbered along the chain shown (N, C = ends). [ ]: non-standard residue; d: D form. X35 = CC[C@H](C)[C@@H](N[*:1])[C@@H](O)CC(=O)O[C@H](C(=O)[C@H](C)C(=O)[*:2])C(C)C; NMeY = CN[C@@H](Cc1ccc(O)cc1)C(=O)O
# Experiments:
# Assay in all cases: DTP human tumour cell line panel, 48 h
# NCI-H460 lung = tested on: NCI-H460 lung
# OVCAR-8 ovarian = tested on: OVCAR-8 ovarian
# M14 melanoma = tested on: M14 melanoma
# 786-0 renal = tested on: 786-0 renal
# SN12C renal = tested on: SN12C renal
# HT29 colon = tested on: HT29 colon
# PC-3 prostate = tested on: PC-3 prostate
# UO-31 renal = tested on: UO-31 renal
# K-562 leukemia = tested on: K-562 leukemia
# HCT-116 colon = tested on: HCT-116 colon
# NCI-H522 lung = tested on: NCI-H522 lung
# OVCAR-3 ovarian = tested on: OVCAR-3 ovarian
# CAKI-1 renal = tested on: CAKI-1 renal
# BT-549 breast = tested on: BT-549 breast
# U251 CNS = tested on: U251 CNS
# SNB-75 CNS = tested on: SNB-75 CNS
SMILES,TGI (NCI-H460 lung) [µM],TGI (OVCAR-8 ovarian) [µM],TGI (M14 melanoma) [µM],TGI (786-0 renal) [µM],TGI (SN12C renal) [µM],TGI (HT29 colon) [µM],TGI (PC-3 prostate) [µM],TGI (UO-31 renal) [µM],TGI (K-562 leukemia) [µM],TGI (HCT-116 colon) [µM],TGI (NCI-H522 lung) [µM],TGI (OVCAR-3 ovarian) [µM],TGI (CAKI-1 renal) [µM],TGI (BT-549 breast) [µM],TGI (U251 CNS) [µM],TGI (SNB-75 CNS) [µM]
CCOC(=O)c1ncn(CCc2ccc(Cl)cc2)c1C,> 100,> 100,> 100,> 100,> 100,> 100,> 100,> 100,> 100,> 100,> 100,> 100,> 100,> 100,> 100,
c1ccc2sc(SSSc3nc4ccccc4s3)nc2c1,> 100,> 100,> 100,> 100,> 100,> 100,> 100,> 100,> 100,> 100,> 100,,> 100,> 100,> 100,> 100
Cc1ccc2[nH]c3c(c(=O)n(C)c(=O)n3C)c2c1,,> 100,> 100,> 100,> 100,> 100,,> 100,> 100,> 100,> 100,,> 100,> 100,> 100,> 100
NS(=O)(=O)c1nnc(NS(=O)(=O)c2ccccc2[N+](=O)[O-])s1,> 100,,> 100,> 100,,> 100,> 100,> 100,> 100,> 100,> 100,> 100,> 100,> 100,> 100,> 100
O=C(c1cscc1CCc1ccccc1)c1cscc1CCc1ccccc1,> 100,> 100,> 100,> 100,> 100,,> 100,> 100,> 100,> 100,> 100,,> 100,> 100,> 100,> 100
CC(C)(C)OC(=O)N(O)[C@@H]1CC[C@H](n2cnc3c(N)ncnc32)C1,> 100,> 100,> 100,> 100,> 100,> 100,> 100,> 100,> 100,> 100,> 100,> 100,,> 100,> 100,> 100
N=c1oc2ccccc2cc1C(=O)Nc1cccc2ccccc12,> 100,> 100,> 100,> 100,> 100,> 100,> 100,,> 100,> 100,,> 100,> 100,> 100,> 100,> 100
O=C(OCc1ccccc1)C(Cc1ccc(OCc2ccccc2)cn1)NC(=O)C(F)(F)F (configuration not stated),> 100,> 100,,> 100,> 100,> 100,> 100,> 100,> 100,> 100,> 100,> 100,> 100,> 100,> 100,98.8
O=Cc1ccc2ccocc1-2,> 100,> 100,> 100,> 100,> 100,> 100,> 100,> 100,> 100,> 100,> 100,> 100,> 100,> 100,> 100,
CC[C@H](C)[C@H]1NC(=O)[C@@H](N)[C@@H](C)OC(=O)[C@H](Cc2ccc(OC)cc2)N(C)C(=O)[C@@H]2CCCN2C(=O)[C@H](CC(C)C)NC(=O)[C@@H](C)C(=O)[C@H](C(C)C)OC(=O)C[C@@H]1O (H-T[X35]LP[NMeY](Me); ester 1-C),> 100,> 100,32.3,> 100,> 100,38.8,> 100,68.7,> 100,,25.1,> 100,,45.9,> 100,> 100
CCOC(=O)CN1C(=O)NC(C)(c2ccccc2)C1=O (configuration not stated),,> 100,> 100,> 100,> 100,> 100,> 100,> 100,> 100,> 100,> 100,> 100,> 100,> 100,> 100,> 100
C[C@@H]1S[C@H](c2c(F)cccc2Cl)n2c1nc1ccccc12,,> 100,42,28.4,29,29.3,23.7,24.2,> 100,16.5,,28.2,76.5,28.2,22.7,60.8
Cc1ccc(N2C(=O)C3c4[nH]c5ccc(C)cc5c4C4CCC(C(C)(C)C)CC4C3C2=O)cc1 (configuration not stated),20.4,24.4,> 100,17.1,27.3,75.5,70.3,> 100,16.1,37.1,39.4,27.3,45.3,75.9,27.7,
CCOC(=O)[C@@H]1[C@@H](c2ccccc2)N(C)O[C@@]1(c1ccccc1)C(F)(F)F,,> 100,> 100,> 100,> 100,> 100,> 100,> 100,,> 100,> 100,> 100,> 100,> 100,> 100,> 100
C=C(Cl)/C(=C\Cl)CCC(Cl)C(C)C (configuration not stated) (tested in a mixture with another compound),32.9,,32.7,29.5,31.3,36.8,39,32.1,> 100,29.8,16.8,30.1,32.2,29.3,30.1,32.5
O=c1[nH]c2c(c(=O)[nH]1)SC(c1ccccc1)C2 (configuration not stated),> 100,> 100,> 100,> 100,,> 100,> 100,> 100,> 100,> 100,> 100,> 100,> 100,> 100,> 100,> 100
